From patent publication US20160095923A1, “ORAL COMPOSITION COMPRISNG (+)-CATECHIN” (VALORE, priority 2013, published 2016)

How the values were obtained:
[1] = Bioavailability after oral administration in human beings (free monomeric (+)-catechin in plasma, LC-MS/MS)
Method: (§1) The experimental results described below were obtained on the basis of a study carried out in healthy human beings and in healthy Wistar rats weighing approximately 250 grams.
(§2) With regard to taking the blood samples from the rats and from the human beings, the blood was collected in tubes internally coated with EDTA and was then centrifuged at 3000 rpm (revolutions per minute) at ambient temperature for 45 min, and then for 15 min at a temperature of 4° C. The plasma was then collected and stored at −70° C. before analysis.
(§3) The analytical technique (LC-MS/MS for Liquid Chromatography coupled to tandem Mass Spectrometry) for measuring the active substance in the blood was based on the method described by Mata-Bilbao et al., published in 2007 in the Journal of Agricultural and Food Chemistry, volume 55, page 8857.
(§4) The free (+)-catechin was extracted from the plasma with a solution of phosphoric acid, EDTA and ascorbic acid and was then purified by SPE (solid phase extraction); in particular, it is an Oasis™ HLB extraction which is analyzed by LC-MS/MS. The quantification was carried out according to a standard calibration procedure with (+/−)-catechin-2,3,4-^13C3 as internal standard (SI).
This complex salt is administered to a group A of 5 healthy volunteers.
This ct parameter makes it possible to calculate, from the data of table 1, the bioavailability of the (+)-catechin expressed in ng h/ml.

rat skin = experiment: Total incorporation and incorporation into collagen of 3H-proline in the skin; format: in vivo, Wistar rats; conditions: 100 mg/kg by gavage for 5 days
Method: To do this, a study was carried out in vivo on a batch of 24 female Wistar rats weighing from 95 to 115 g, divided into two groups C and D, each of 12 rats. For each group, the radioactive 3H-hydroxyproline, the specific activity of which is 13.6 Ci/10^−3 mol, was administered to all the animals by intraperitoneal injection of proline-L-(5-3H) at a dose, relative to the weight of the individuals, of 1 mCi/kg, which represents an activity in terms of radioactive 3H-proline of 100 μCi/individual.
6 rats of each group received a treatment based on monomeric (+)-catechin by gavage in a proportion of 100 mg/kg for 5 days before sacrifice. […] The group C received monomeric (+)-catechin hydrochlorolysinate, while the group D received monomeric (+)-catechin ascorbolysinate.
In table 8, the level of incorporation is measured by the number of disintegrations of the radioactive 3H-hydroxyproline per minute (dpm) per mg of dry weight. The higher this number, the higher the concentration of 3H-hydroxyproline.
In this comparative example, a group E of 12 Wistar rats weighing from 95 to 115 g, in which radioactive 3H-hydroxyproline, the specific activity of which is 13.6 Ci/10^−3 mol, was administered to all the individuals by intraperitoneal injection of proline-L-(5-3H) at a dose, relative to the weight of the individuals, of 1 mCi/kg, which represents an activity in terms of radioactive 3H-proline of 100 ρCi/individual.
6 rats of each group received a treatment based on pure monomeric (+)-catechin by gavage in a proportion of 100 mg/kg for 5 days before sacrifice.
In table 9, the level of incorporation is measured by the number of disintegrations of the radioactive 3H-hydroxyproline per minute (dpm) per mg of dry weight. The higher this number, the higher the concentration of 3H-hydroxyproline.

[2] = Bioavailability after oral administration or intravenous injection in Wistar rats (free/total polyphenol in plasma, LC-MS/MS); conditions: per os
Method: as §1
An acclimation period was observed before beginning the experiments.
The rats received an administration per os of a volume of 5 ml of a solution of active product.
as §2, §3, §4
The procedure is identical with regard to the extraction and the quantification of free quercetin or ECGC in the blood.
With regard to the extraction and quantification of the total (+)-catechin, the procedure is the same as that applied to the free (+)-catechin, with the exception of the fact that an additional step prior to the purification by SPE is carried out.
Each of the mixtures is then solubilized in water.
Each of the mixtures is solubilized in water.

Solubility in water = format: physicochemical
[3] = group B, oral 1 g pure catechin, free catechin
[4] = free catechin, dose equivalent to 100 mg/kg catechin, 5 rats
[5] = free catechin, equivalent to 25 mg/kg, 3 rats (comparative example 4)
[6] = free catechin, equivalent to 25 mg/kg, 5 rats, mixture dissolved in water (comparative examples 6-9)
[7] = total (+)-catechin, equivalent to 25 mg/kg, 3 rats

SMILES: Oc1cc(O)c2c(c1)O[C@H](c1ccc(O)c(O)c1)[C@@H](O)C2 [CP, (+)-catechin]
- plasma concentration (cc) of free monomeric (+)-catechin ([1]; group B, oral 1 g pure catechin, T 0.5 h): 59 ± 61 ng/mL
- plasma concentration (cc) of free monomeric (+)-catechin ([1]; group B, oral 1 g pure catechin, T 1 h): 266 ± 147 ng/mL
- plasma concentration (cc) of free monomeric (+)-catechin ([1]; group B, oral 1 g pure catechin, T 2 h): 230 ± 87 ng/mL
- plasma concentration (cc) of free monomeric (+)-catechin ([1]; group B, oral 1 g pure catechin, T 3 h): 226 ± 38 ng/mL
- plasma concentration (cc) of free monomeric (+)-catechin ([1]; group B, oral 1 g pure catechin, T 4 h): 128 ± 51 ng/mL
- plasma concentration (cc) of free monomeric (+)-catechin ([1]; group B, oral 1 g pure catechin, T 6 h): 27 ± 13 ng/mL
- T (max) [1, 3]: 1.20 h
- ct (total concentration, area under curve over 6 h) [1, 3]: 904 ± 163 ng·h/mL
- c (max) ([1]; oral 1 g pure catechin, free catechin): 280 ng/mL
- T (max) ([1]; oral, humans, as stated in summary text): 1.33 h
- c (max) related to 0.92 g of pure (+)-catechin ([1]; oral, scaled from 1 g to 0.92 g dose): 258 ng/mL
- ct related to 0.92 g of pure (+)-catechin ([1]; oral, scaled from 1 g to 0.92 g dose, listed as pure (+)-catechin): 832 ± 150 ng·h/mL
- increase in the level of incorporation versus control (rat skin): +16%
- level of incorporation into collagen (IC) of 3H-hydroxyproline in rat skin (rat skin; treated subgroup): 1124 ± 51 dpm/mg
- level of total incorporation (IT) of 3H-hydroxyproline in rat skin (rat skin; treated subgroup): 5689 ± 410 dpm/mg
- Δct (difference of ct to CP) ([2]; free catechin, dose equivalent to 100 mg/kg catechin): 0%
- T (max) [2, 4]: 1 h
- c (max) [2, 4]: 716 ng/mL
- ct [2, 4]: 96 238 ng min/ml
- Δct (difference of ct to CP) ([2]; free catechin, equivalent to 25 mg/kg (comparative example 4)): 0%
- Δct (difference of ct to CP) ([2]; free catechin, equivalent to 25 mg/kg (comparative examples 7-9)): 0%
- T (max) [2, 5]: 0.5 h
- c (max) [2, 5]: 154 ng/mL
- ct [2, 5]: 21 145 ng min/ml
- T (max) [2, 6]: 1 h
- c (max) [2, 6]: 580 ng/mL
- Δct (difference of ct to CP) ([2]; total (+)-catechin, equivalent to 25 mg/kg): 0%
- T (max) [2, 7]: 0.5 h
- c (max) [2, 7]: 2200 ng/mL
- ct [2, 7]: 273 875 ng min/ml
- solubility in water (Solubility in water; at 20° C.): 0.9 g per liter
- solubility in water, times lower than in the form of a complex (Solubility in water; pure catechin versus complex with basic amino acid): 400 times
